In PubChem BioAssay (NCI):
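GI50 = concentration required for 50% inhibition of growth. TGI: concentration producing complete growth inhibition.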

Tests used:
Experiment in all cases: NCI tumour cell line growth inhibition, 384-well format
M14 melanoma = test system: M14 melanoma
A498 renal = test system: A498 renal
UO-31 renal = test system: UO-31 renal
SNB-19 CNS = test system: SNB-19 CNS
EKVX NSCLC = test system: EKVX NSCLC
A549 NSCLC = test system: A549 NSCLC
NCI-H322M lung = test system: NCI-H322M lung
NCI-H23 lung = test system: NCI-H23 lung
MOLT-4 leukemia = test system: MOLT-4 leukemia
SF-539 CNS = test system: SF-539 CNS
SF-268 CNS = test system: SF-268 CNS
RPMI-8226 leukemia = test system: RPMI-8226 leukemia
HCC-2998 colon = test system: HCC-2998 colon
NCI-H460 NSCLC = test system: NCI-H460 NSCLC
DU-145 prostate = test system: DU-145 prostate
UACC-62 melanoma = test system: UACC-62 melanoma
SK-MEL-28 melanoma = test system: SK-MEL-28 melanoma
U251 glioblastoma = test system: U251 glioblastoma
OVCAR-4 ovarian = test system: OVCAR-4 ovarian
TK-10 renal = test system: TK-10 renal
HT29 colon = test system: HT29 colon
LOX IMVI melanoma = test system: LOX IMVI melanoma
SK-OV-3 ovarian = test system: SK-OV-3 ovarian
OVCAR-8 ovarian = test system: OVCAR-8 ovarian
OVCAR-3 ovarian = test system: OVCAR-3 ovarian
NCI-H226 lung = test system: NCI-H226 lung
SR leukemia = test system: SR leukemia
CAKI-1 renal = test system: CAKI-1 renal
SN12C renal = test system: SN12C renal
MDA-MB-231 breast = test system: MDA-MB-231 breast
ACHN renal = test system: ACHN renal
HCT-15 colon = test system: HCT-15 colon
HOP-62 NSCLC = test system: HOP-62 NSCLC
MDA-MB-435 melanoma = test system: MDA-MB-435 melanoma
NCI-H522 lung = test system: NCI-H522 lung
SNB-75 CNS = test system: SNB-75 CNS
SF-295 CNS = test system: SF-295 CNS
SK-MEL-5 melanoma = test system: SK-MEL-5 melanoma
COLO 205 colon = test system: COLO 205 colon
HS 578T breast = test system: HS 578T breast
KM12 colon = test system: KM12 colon
UACC-257 melanoma = test system: UACC-257 melanoma
NCI/ADR-RES ovarian = test system: NCI/ADR-RES ovarian
RXF 393 renal = test system: RXF 393 renal
MDA-MB-468 breast = test system: MDA-MB-468 breast
OVCAR-5 ovarian = test system: OVCAR-5 ovarian
MALME-3M melanoma = test system: MALME-3M melanoma
786-0 renal = test system: 786-0 renal
CCRF-CEM leukemia = test system: CCRF-CEM leukemia
PC-3 prostate = test system: PC-3 prostate
HOP-92 NSCLC = test system: HOP-92 NSCLC
SW-620 colon = test system: SW-620 colon
IGROV1 ovarian = test system: IGROV1 ovarian
HL-60(TB) leukemia = test system: HL-60(TB) leukemia
T-47D breast = test system: T-47D breast
BT-549 breast = test system: BT-549 breast
MCF7 breast = test system: MCF7 breast
K-562 leukemia = test system: K-562 leukemia

Cc1cc(Nc2cc(CN3CCOCC3)c3nc(C)c(Cc4ccc(Cl)cc4F)n3n2)n[nH]1
GI50 (M14 melanoma): 1740 nM | TGI (M14 melanoma): 11.8 µM | GI50 (A498 renal): 724 nM | TGI (A498 renal): 3.29 µM | GI50 (UO-31 renal): 1440 nM | TGI (UO-31 renal): 2880 nM | GI50 (SNB-19 CNS): 1850 nM | TGI (SNB-19 CNS): 4.25 µM | GI50 (EKVX NSCLC): 1580 nM | TGI (EKVX NSCLC): 8.09 µM | GI50 (A549 NSCLC): 772 nM | TGI (A549 NSCLC): 3.35 µM | GI50 (NCI-H322M lung): 1710 nM | TGI (NCI-H322M lung): 4.68 µM | GI50 (NCI-H23 lung): 578 nM | TGI (NCI-H23 lung): 2570 nM | GI50 (MOLT-4 leukemia): 162 nM | TGI (MOLT-4 leukemia): 336 nM | GI50 (SF-539 CNS): 1080 nM | TGI (SF-539 CNS): 2450 nM | GI50 (SF-268 CNS): 439 nM | TGI (SF-268 CNS): 1620 nM | GI50 (RPMI-8226 leukemia): 205 nM | TGI (RPMI-8226 leukemia): 516 nM | GI50 (HCC-2998 colon): 1130 nM | TGI (HCC-2998 colon): 2390 nM | GI50 (NCI-H460 NSCLC): 356 nM | TGI (NCI-H460 NSCLC): 1030 nM | GI50 (DU-145 prostate): 1020 nM | TGI (DU-145 prostate): 3 µM | GI50 (UACC-62 melanoma): 1230 nM | TGI (UACC-62 melanoma): 2990 nM | GI50 (SK-MEL-28 melanoma): 2390 nM | TGI (SK-MEL-28 melanoma): 15 µM | GI50 (U251 glioblastoma): 1200 nM | TGI (U251 glioblastoma): 2750 nM | GI50 (OVCAR-4 ovarian): 874 nM | TGI (OVCAR-4 ovarian): 5.88 µM | GI50 (TK-10 renal): 1950 nM | TGI (TK-10 renal): 4.72 µM | GI50 (HT29 colon): 1730 nM | TGI (HT29 colon): 16.1 µM | GI50 (LOX IMVI melanoma): 868 nM | TGI (LOX IMVI melanoma): 2130 nM | GI50 (SK-OV-3 ovarian): 1230 nM | TGI (SK-OV-3 ovarian): 3.38 µM | GI50 (OVCAR-8 ovarian): 1370 nM | TGI (OVCAR-8 ovarian): 3.65 µM | GI50 (OVCAR-3 ovarian): 825 nM | TGI (OVCAR-3 ovarian): 2960 nM | GI50 (NCI-H226 lung): 324 nM | TGI (NCI-H226 lung): 2080 nM | GI50 (SR leukemia): 166 nM | TGI (SR leukemia): 312 nM | GI50 (CAKI-1 renal): 1030 nM | TGI (CAKI-1 renal): 2240 nM | GI50 (SN12C renal): 730 nM | TGI (SN12C renal): 9.25 µM | GI50 (MDA-MB-231 breast): 1070 nM | TGI (MDA-MB-231 breast): 3.02 µM | GI50 (ACHN renal): 1270 nM | TGI (ACHN renal): 7.95 µM | GI50 (HCT-15 colon): 1110 nM | TGI (HCT-15 colon): 12 µM | GI50 (HOP-62 NSCLC): 1050 nM | TGI (HOP-62 NSCLC): 2950 nM | GI50 (MDA-MB-435 melanoma): 563 nM | TGI (MDA-MB-435 melanoma): 15.1 µM | GI50 (NCI-H522 lung): 366 nM | TGI (NCI-H522 lung): 1110 nM | GI50 (SNB-75 CNS): 812 nM | TGI (SNB-75 CNS): 2350 nM | GI50 (SF-295 CNS): 1210 nM | TGI (SF-295 CNS): 2700 nM | GI50 (SK-MEL-5 melanoma): 693 nM | TGI (SK-MEL-5 melanoma): 5.82 µM | GI50 (COLO 205 colon): 418 nM | TGI (COLO 205 colon): 1660 nM | GI50 (HS 578T breast): 586 nM | TGI (HS 578T breast): 1810 nM | GI50 (KM12 colon): 37.8 nM | TGI (KM12 colon): 1470 nM | GI50 (UACC-257 melanoma): 5.45 µM | TGI (UACC-257 melanoma): 20.6 µM | GI50 (NCI/ADR-RES ovarian): 2520 nM | TGI (NCI/ADR-RES ovarian): 7.88 µM | GI50 (RXF 393 renal): 612 nM | TGI (RXF 393 renal): 2360 nM | GI50 (MDA-MB-468 breast): 271 nM | TGI (MDA-MB-468 breast): 535 nM | GI50 (OVCAR-5 ovarian): 1060 nM | TGI (OVCAR-5 ovarian): 3.58 µM | GI50 (MALME-3M melanoma): 1490 nM | TGI (MALME-3M melanoma): 9.79 µM | GI50 ([…]-0 renal): 688 nM | TGI (786-0 renal): 2320 nM | GI50 (CCRF-CEM leukemia): 276 nM | TGI (CCRF-CEM leukemia): 604 nM | GI50 (PC-3 prostate): 2200 nM | TGI (PC-3 prostate): 13.7 µM | GI50 (HOP-92 NSCLC): 554 nM | TGI (HOP-92 NSCLC): 2560 nM | GI50 (SW-620 colon): 671 nM | TGI (SW-620 colon): 8.26 µM | GI50 (IGROV1 ovarian): 1690 nM | TGI (IGROV1 ovarian): 3.36 µM | GI50 (HL-60(TB) leukemia): 302 nM | TGI (HL-60(TB) leukemia): 670 nM | GI50 (T-47D breast): 855 nM | TGI (T-47D breast): 14 µM | GI50 (BT-549 breast): 842 nM | TGI (BT-549 breast): 2780 nM | GI50 (MCF7 breast): 894 nM | TGI (MCF7 breast): 6.57 µM | GI50 (K-562 leukemia): 380 nM | TGI (K-562 leukemia): 1360 nM
